Test systems include M14 melanoma; NCI-H460 lung; OVCAR-8 ovarian; SNB-75 CNS; SR leukemia; UACC-257 melanoma; DLD-1 colon; DMS 114 small cell lung; DMS 273 small cell lung; HOP-18 NSCLC; LXFL 529 NSCLC; M19-MEL melanoma; KM20L2 colon; SNB-78 CNS; XF 498 CNS.
Holding throughout (assay): NCI tumour cell line growth inhibition, 48 h

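Following 48 hours of exposure in 96-well plates, responses at five concentrations were used to interpolate endpoints linearly. TGI: total growth inhibition.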 Where only a bound is given, the exact number is not on record here.

As for `CCN1CCC(O)(/C=C/c2cccc(C)c2)C(C(=O)/C=C/c2cccc(C)c2)C1` (stereo not drawn), the TGI in the assay on M14 melanoma is 7.47 µM; with NCI-H460 lung, 4.64 µM; in the assay on OVCAR-8 ovarian it was 10.4 µM; with SNB-75 CNS, 7.69 µM; in the assay on SR leukemia, > 100 µM; with UACC-257 melanoma, 7.31 µM.
With `COc1ccc(-c2c(C(C)=O)c(C)n(C3OC(COC(C)=O)C(OC(C)=O)C(OC(C)=O)C3OC(C)=O)c(=S)c2C#N)cc1` (stereo not drawn), the TGI in the assay on M14 melanoma, in the assay on NCI-H460 lung, in the assay on OVCAR-8 ovarian, in the assay on SNB-75 CNS, with SR leukemia and with UACC-257 melanoma was > 100 µM throughout.
`CC(=O)OCC(OC(C)=O)C(OC(C)=O)C(/C=N\Nc1nc2ccccc2c(=O)[nH]1)OC(C)=O` (stereo not drawn): the TGI in the assay with M14 melanoma, in the assay on NCI-H460 lung, in the assay with OVCAR-8 ovarian, in the assay with SNB-75 CNS, in the assay with SR leukemia and in the assay on UACC-257 melanoma was > 100 µM throughout.
As for `CCOC(=O)c1ccc(N(C)Cc2cnc3nc(N)nc(N)c3n2)cc1`, the TGI is 97.2 µM with M14 melanoma; > 100 µM in the assay with NCI-H460 lung; 29.2 µM in the assay with OVCAR-8 ovarian; 54 µM in the assay with SNB-75 CNS; > 100 µM with SR leukemia; > 100 µM in the assay on UACC-257 melanoma.
For the compound `COc1cc(C2SC(N)=Nc3c2c(C)nn3C(=O)Cc2ccccc2)cc(OC)c1OC` (stereo not drawn), the TGI in the assay on M14 melanoma, in the assay on NCI-H460 lung, in the assay on OVCAR-8 ovarian, in the assay on SNB-75 CNS, in the assay on SR leukemia and in the assay on UACC-257 melanoma was > 100 µM in each case.
Regarding `C/C(=N/NC(=S)Nc1ccccc1C)c1ccccn1`, the TGI with M14 melanoma was 5.7 µM; in the assay with NCI-H460 lung it was 7.61 µM; in the assay on OVCAR-8 ovarian it was 9.32 µM; in the assay on SNB-75 CNS, 16.3 µM; in the assay with SR leukemia, > 4.64 µM; in the assay with UACC-257 melanoma, 1.88 µM.
Regarding `O=C(OC1C#CCSCC#C/C=C\1)c1cnc2ccccc2n1` (stereo not drawn), the TGI with M14 melanoma is > 100 µM; in the assay on NCI-H460 lung, 33.7 µM; with OVCAR-8 ovarian it was > 100 µM; with SNB-75 CNS, > 100 µM; in the assay with SR leukemia, 53.1 µM; in the assay on UACC-257 melanoma, > 100 µM.
On to `O=c1cc(CN2CCCCC2)[nH]c2c1ccc1nc(CN3CCCCC3)cc(=O)n12`, for which the TGI in the assay on M14 melanoma, in the assay with NCI-H460 lung, with OVCAR-8 ovarian, in the assay with SNB-75 CNS, with SR leukemia and in the assay on UACC-257 melanoma was > 100 µM in each case.
With `C=CC(C)(C)c1c(OC)oc2ccc(OC)c(C)c2c1=O`, the TGI in the assay with M14 melanoma, in the assay on NCI-H460 lung, in the assay on OVCAR-8 ovarian, in the assay with SNB-75 CNS, in the assay with SR leukemia and with UACC-257 melanoma was > 100 µM in each case.
As for `N#CC(NNC(=O)Cc1ccccc1)c1ccc(O)cc1` (stereo not drawn), the TGI in the assay on DLD-1 colon, in the assay with DMS 114 small cell lung, in the assay on DMS 273 small cell lung, in the assay with HOP-18 NSCLC, in the assay with LXFL 529 NSCLC and in the assay with M14 melanoma was > 100 µM each time. Besides, the TGI is > 100 µM in the assay on M19-MEL melanoma; > 100 µM with NCI-H460 lung; > 100 µM in the assay with OVCAR-8 ovarian; 97.5 µM in the assay with SNB-75 CNS; > 100 µM with SR leukemia; > 100 µM with UACC-257 melanoma.
Take `COc1ccccc1NC(=S)NNC(=O)c1cc(-c2ccccc2)nc2ccccc12`: the TGI with M14 melanoma came to 26.1 µM; in the assay on NCI-H460 lung, 98 µM; in the assay on OVCAR-8 ovarian it was 49 µM; in the assay with SNB-75 CNS, 85 µM; in the assay with SR leukemia, 4.53 µM; with UACC-257 melanoma, 57.8 µM.
Consider `O=C(CSc1nc(-c2ccccc2)c(-c2ccccc2)[nH]1)N/N=C/c1ccc([N+](=O)[O-])cc1`, for which the TGI in the assay with DLD-1 colon worked out at 38.5 µM; in the assay on DMS 114 small cell lung it was 55.8 µM; in the assay with DMS 273 small cell lung, 27.9 µM; with KM20L2 colon, 23.2 µM; with LXFL 529 NSCLC, 38.3 µM; in the assay on M14 melanoma, 31.1 µM. For the same compound, the TGI in the assay on M19-MEL melanoma is 30.8 µM; in the assay on NCI-H460 lung, 43.2 µM; in the assay with OVCAR-8 ovarian it was 25.4 µM; in the assay with SNB-75 CNS, 47.8 µM; with SNB-78 CNS it was 62.5 µM; in the assay with SR leukemia it was > 100 µM. Moreover, the TGI with UACC-257 melanoma was 36 µM; in the assay with XF 498 CNS, 28 µM.
Turning to `CC[C@H](C)[C@H](NC(=O)[C@H](Cc1ccc(O)cc1)NCC(F)(F)F)C(=O)OC(C)(C)C`, the TGI with M14 melanoma came out at 15.1 µM; in the assay on NCI-H460 lung it was 14.1 µM; in the assay with OVCAR-8 ovarian, 29.8 µM; in the assay on SNB-75 CNS it was 17.5 µM; in the assay on SR leukemia, 20.8 µM; in the assay with UACC-257 melanoma, 14.7 µM.
For `O=C1NC(=S)NC1C(Cc1ccccc1)c1ccco1` (stereo not drawn), the TGI in the assay with M14 melanoma, in the assay with NCI-H460 lung, with OVCAR-8 ovarian, in the assay on SNB-75 CNS, in the assay on SR leukemia and with UACC-257 melanoma was > 100 µM each time.
Consider `CC1OC(n2ccc3ccc([N+](=O)[O-])cc32)C(O)C(O)C1O` (stereo not drawn), for which the TGI in the assay with DLD-1 colon, with DMS 114 small cell lung, in the assay on DMS 273 small cell lung, in the assay with KM20L2 colon, with LXFL 529 NSCLC and in the assay with M14 melanoma was > 100 µM in each case. For the same compound, the TGI in the assay with M19-MEL melanoma, in the assay on NCI-H460 lung, in the assay with OVCAR-8 ovarian, in the assay on SNB-75 CNS, with SNB-78 CNS and with SR leukemia was > 100 µM throughout. Further, the TGI with UACC-257 melanoma and in the assay on XF 498 CNS was > 100 µM throughout.
With `Cc1ccc([N+](=O)[O-])cc1S(=O)(=O)Nc1ccc(C(=O)/C=C/c2ccccc2)cc1`, the TGI with M14 melanoma came out at 43.1 µM; with NCI-H460 lung, 37.8 µM; in the assay on OVCAR-8 ovarian, 50.2 µM; in the assay on SNB-75 CNS it was 32.3 µM; in the assay on SR leukemia it was 54.7 µM; in the assay on UACC-257 melanoma, 34.6 µM.

Source of the values: PubChem BioAssay (NCI).
